Experimental data taken from US20160354312A1, “FORMULATIONS OF JASMONATES AND NANOCARRIERS OR MICROCARRIERS” (Nanocare Technologies, Inc., priority 2008, published 2016).

Experiment: GC/MS analysis of incorporation of methyl jasmonate in nanocarriers
Assay type: physicochemical
Method: The class of dendrimers used was PAMAM. […] The experimental data was obtained using a GC with a column temperature of 50° C., the injection temperature of 250° C., Flow control mode linear, total flow 50.0 mL/min., and column flow of 1.70 mL/min. The percentage relative to the incorporation of methyl jasmonate inside β-CD was 98-99% and for dendrimer PAMAM it was more than 95%. Comparing peak 1 with 2, peak 2 is methyl Jasmonate alone and peak 1 is the inclusion compounds formed. In both cases peak 1 is clearly different and proves the molecular association.

percentage relative to the incorporation of methyl jasmonate (dendrimer PAMAM): more than 95%
percentage relative to the incorporation of methyl jasmonate (inside β-CD): 98-99%
Structure (SMILES): CC/C=C\CC1C(=O)CCC1CC(=O)OC (centres unmarked) [methyl jasmonate]
